Entries after “also recorded” stand apart in the source; their conditions may differ.
Key:
[1] = tested on: cellular microtubules, NIH 3T3 cells; test: Microtubule bundle formation by immunofluorescence; type: cell-based; conditions: 2 μM, 5.5 h
Protocol: FIG. 9 immunofluorescence images NIH3T3 cells labeled with β-tubulin antibody following exposure to different drugs. A)DMSO; B)2 μM Taxol; C)2 μM eleutherobin; D)2 μM neo-eleutherobin; E)2 μM SKBII.294; F)2 μM SKBIII.13.
Illustrates the effects of eleutherobin and its derivatives on the morphology of cellular microtubules following exposure of cells to 2 μM of each compound for 5.5 h at 37° C. […] The number of micotic asters correlated with the extent of microtubule bundling in interphase cells.
NIH 3T3 cells were grown to subconfluency on glass converslips in 35 mm plastic petri dishes. Cells were exposed to 2 μM of Taxol and each of the experimental compounds for 5.5 h at 37° C., rinsed twice in PBS and extracted with 0.5% Triton-X-100 in microtubule stabilizing buffer (PEM) (100 mM PIPES, 2 mM EGTA and 2 mM MgCl2, pH 6.8) for 4 min. Following a wash in PEM, the cells were fixed for 40 min at room temperature in 3% formaldehyde in PEM followed by incubation in 0.1 M glycine in PBS for 10 min and washing (four times) in PEM containing 5 μM EGTA. Following blocking in 20% normal goat serum (NGS) for 30 min at room temperature, cells were incubated for 1 h at 37° C. with a 1:100 dilution of β-tubulin mAb diluted in 10% NGS, washed twice in 1% BSA, once in PBS and three times in 1% BSA. Cells were then incubated in a 1:200 dilution of the secondary fluorophore antibody, IndocarbocyanineCY3 (Jackson Immunoresearch Laboratories Inc., Pa.) in 20% NGS for 20 min at room temperature. Finally cells were washed three times in 1% BSA and the dried slides mounted in 30% glycerol in PBS containing […]-phenylene diamine (1 mg/ml). Fixed slides were examined using a Zeiss Axioskop microscope.

tumor cell lines = conditions: variety of tumor cell lines; cited from earlier work
[2] = tested on: tubulin / microtubule protein; test: Tubulin polymerization by turbidity at 350 nm in the absence of GTP; type: biochemical, calf; conditions: 10 μM, 37 °C, relative to 10 μM Taxol (100%)
Protocol: Eleutherobin and its derivatives were synthesized as described (18,19). Taxol was obtained from the Drug Development Branch, National Cancer Institute (Bethesda, Md.). All compounds were dissolved in dimethyl sulfoxide (Sigma Chemical Co., St. Louis, Mo.) at stock concentrations of 5 mM and stored at -20° C. All control samples contained an equal volume of DMSO. GTP was obtained from Sigma Chemical Co. And dissolved in sterile distilled water at a concentration of 10 mM and stored at -20° C. Microtubule protein was purified from calf brains by two cycles of temperature-dependent assembly and disassembly (20) and stored in liquid nitrogen prior to use. The anti-mouse β-tubulin monoclonal antibody T-4026 was obtained from Sigma Chemical Co.
The ability of each compound to polymerize tubulin was evaluated by recording the change in turbidity of microtubule protein at 350 nm for 80 min in a spectrophotometer (UVIKON, Research Instruments Int., SD, Calif.). One mg of purified microtubule protein was diluted in assembly buffer containing 0.1 M MES, 1 mM EGTA, 0.5 mM MgCl2 and 3 M glycerol, pH 6.6. All compounds were evaluated at a concentration of 10 μM at 37° C. […] Microtubule stability was assessed by the addition of 10 mM Ca^++. changes from t=0-10 min were used to calculate initial slopes from the linear portion of each curve. These values were used to calculate the activity of each compound (relative to the activity of Taxol which was assigned a value of 100%).
The polymerization activity of these compounds was also assessed by determining the slope of the linear portion of each curve at A350 nm (t=0-10 min), and expressing this relative to Taxol (which was assigned a value of 100% (FIG. 8). The order of activity of eleutherobin and derivatives using this method, corroborates the results obtained from cytotoxicity studies.

microtubules = conditions: cited from earlier work
[3] = tested on: Human non-small cell lung carcinoma cells, A549; test: Cytotoxicity by counting cells after 72 h, Taxol-sensitive cells; type: cell-based
Protocol: Taxol-resistant and sensitive cell lines were seeded into 12-well plates at a density of 5×10^4 cells per well and allowed a period of 12 h for attachment prior to treatment. […] Cells were then trypsinized and counted (Coulter counter model ZF0031, Coulter Corp., Miami, Fla.).

[4] = tested on: MDR1 expressing cell line derived from human colon carcinoma HCT 116 cells; conditions: cited from earlier work
[5] = tested on: Human ovarian carcinoma cells SKOV3; test: Cytotoxicity by counting cells after 72 h, Taxol-sensitive cells; type: cell-based; conditions: SK-OV-3, 72 h
Protocol: (§1) Human non-small cell lung carcinoma cells, A549, were maintained in RPMI 1640 containing 10% fetal bovine serum and 1% penicillin-streptomycin (Gibco Laboratories, Grand Island N.Y.) at 37° C. in 7% CO2. The Taxol-resistant cell line A549-T12 was selected for resistance to Taxol and maintained in a final concentration of 12 nM drug (21). Human ovarian carcinoma cells SKOV3 and the MDR variant SKVBL (obtained from Dr. V. Ling) were maintained in α-mem plus ribonucleotides, deoxynucleotides, 15% fetal bovine serum and 1% penicillin-streptomycin (Gibco Laboratories) at 37° C. in 5% CO2. SKVBL cells were maintained in […] vinblastine (Sigma Chemical Co.).
(§2) Taxol-resistant and sensitive cell lines were seeded into 12-well plates at a density of 5×10^4 cells per well and allowed a period of 12 h for attachment prior to treatment. Cells were exposed to 10-fold serial dilutions of each compound (10^-10 to 10^-6 M) for 72 h. Cells were then trypsinized and counted (Coulter counter model ZF0031, Coulter Corp., Miami, Fla.). The IC50 was determined by plotting cell number against log of the drug concentration and this was used to determine the concentration of compound resulting in 50% growth inhibition compared to untreated cells. Each cell line was assayed in a minimum of 3 independent experiments with each compound and the results expressed as the mean IC50.
(§3) ^a Cytotoxicity determined by counting cells after 72 h drug exposure.

[6] = tested on: A549-T12 (Taxol-resistant A549); test: Cytotoxicity by counting cells after 72 h, Taxol-resistant cells; type: cell-based, human
Protocol: as §1, §2
The cytotoxic efficacy of eleutherobin and its derivatives (FIG. 6) was evaluated in two drug sensitive human cancer cell lines and their Taxol-resistant counterparts. The results are summarized in Table I in order of decreasing potency. […] The Taxol-resistant cell line SKVBL overexpresses high levels of P-glycoprotein (22). […] The only difference between the two agents is the enantiomeric relationship in the carbohydrate (2'-acetylarabinose) sector (FIG. 6). […] This cell line expressed high levels of MDR1 resulting in Taxol-resistance equal or greater than 1666 -fold compared to the Taxol-sensitive SKOV3 cell line.
as §3

Question: For `CO[C@]12C=C[C@](C)(O1)[C@@H](OC(=O)/C=C/c1cn(C)cn1)C[C@H]1C(C)=CC[C@H](C(C)C)[C@H]1/C=C\2CO[C@@H]1OC[C@@H](O)[C@@H](O)[C@@H]1OC(C)=O` [Eleutherobin], which “microtubule bundle formation (in words)” value ([1]; 37 °C) is on record?
Answer: extensive microtubule bundling

Question: What about the “multiple asters in mitotic cells” value ([1]; data not shown) of the same compound?
Answer: also seen in eleutherobin and neo-eleutherobin-treated cells

Question: What about the “potency in tumor cell lines (in words)” value (tumor cell lines) of the same compound?
Answer: excellent potency in a variety of tumor cell lines

Question: What about the “polymerization activity relative to Taxol” value [2] of the same compound?
Answer: 94%

Question: What about the “effect on microtubules (in words)” value (microtubules) of the same compound?
Answer: potentiates the assembly of stable microtubules resistant to depolymerization; also recorded: promotes the polymerization of stable microtubules

Question: What about the IC50 ([3]; Homo sapiens, A549, 72 h) of the same compound?
Answer: 6 nM

Question: What about the “fold less potent than Taxol” value ([3]; both sensitive cell lines (A549, SKOV3)) of the same compound?
Answer: 3 fold

Question: And the “cytotoxicity (in words)” value ([3]; sensitive cell lines (A549, SKOV3))?
Answer: IC50 value comparable at Taxol; also recorded: within the nM range

Question: And the “cross-resistance in MDR1 expressing HCT 116-derived cells (in words)” value [4]?
Answer: demonstrated cross-resistance in an MDR1 expressing cell line

Question: And the IC50 [5]?
Answer: 9.5 nM

Question: What about the “fold resistance relative to the parental cell line” value ([6]; A549-T12 vs A549, 4320 min) of the same compound?
Answer: 1.9 fold

Question: And the IC50 ([6]; Homo sapiens, Lung Carcinoma A549, Resistant (A549-T12), 72 h, mean of at least three independent experiments)?
Answer: 12.2 nM

Question: What about the “cross-resistance in A549-T12 (in words)” value ([6]; Taxol-resistant, not expressing P-glycoprotein) of the same compound?
Answer: neither eleutherobin nor neo-eleutherobin displayed cross-resistance; also recorded: neither of these compounds showed cross-resistance

Reference: patent US6172205A, “Synthetic process toward total synthesis of eleutherobin and its analogues and uses thereof” (The Trustees of Columbia in the City of New York, priority 1998, dated 2001)
